Here are results for three compounds from US10561658B2, “Thieno- and pyrrolopyrimidine analogues as anticancer agents and methods of use thereof” (UNIVERSITY OF MARYLAND, BALTIMORE COUNTY, priority 2015, dated 2020).

The term inhibition denotes the change of the read-out against control, counted positive when it falls. As a reminder, the MIC is the lowest concentration found to suppress growth. Low readings indicate greater potency, high ones weaker potency.

The structures appear in SMILES notation. Converted amounts (≈) assume the structure as drawn. Like-named read-outs stand apart in the source and are kept apart here.

The test system of assay [1] is Bacillus subtilis ATCC 6633. Nature of the assay: Antimicrobial growth inhibition, B. subtilis. The following applies: ATCC6633; Bacillus subtilis ATCC 6633, 100 μM. Type of assay: cell-based. How it is done: (§1) Evaluation of antimicrobial activity in vitro. Compounds were tested against the following panel of bacteria and fungi purchased from the American Type Culture Collection (ATCC). Briefly, bacteria were grown to mid-log phase, diluted with fresh medium to an optical density at 600 nm (OD600) of 0.030-0.060 and then diluted again 1:10. This suspension (195 μL) was added to wells in a 96 well microtiter plate (Sarstedt) and 5 μL of compound dissolved in DMSO was added to give a final concentration of 100-0.1 μM at 2.5% DMSO by volume. A DMSO negative control and standard antibiotic positive controls were included in each plate. All compounds were tested in triplicate for each concentration. Plates were sealed with parafilm, placed in a Ziploc bag to prevent evaporation, and incubated at 30° C. (fungi) or 37° C. (bacteria) for 16-20 hours (48 hours for C. neoformans). The OD600 values for each well were determined with a plate reader (Biotek, EL800) and the data were standardized to the DMSO control wells after subtracting the background from blank medium. Initial single concentrations were tested at 100 μM and active compounds were further tested with at least nine concentrations for a full dose response. Dose response curves were generated using GraphPad Prism 5 software and used to determine the MIC95 concentrations (minimal concentration that inhibits 95% of growth). Compounds 1, 2, 5 and 19 were screened for growth inhibition activity against a panel of bacteria and fungi at a concentration of 100 as shown in Table 2. Compound 5 was included to test the importance of the C4-Cl substituent for activity across a broader range of biological systems.

Assay [2] has as its system Enterococcus faecalis (FRE) ATCC 51299. Briefly: Antimicrobial growth inhibition, E. faecalis. In kind it is cell-based. The following applies: ATCC51299; Enterococcus faecalis ATCC 51299, 100 μM. How it is done:
as §1, with “Compounds 1, 2, 5 and 19 were screened for growth inhibition activity against a panel of bacteria and fungi at a concentration of 100 as shown in Table 2. Compound 5 was included to test the importance of the C4-Cl substituent for activity across a broader range of biological systems.” left out

The test system of a further assay is Cryptococcus neoformans. Briefly: Antifungal growth inhibition and MIC95, C. neoformans strains. In kind it is cell-based. How it is done: as §1
(§2) Compounds 1 and 2 were further tested against the susceptible fungal strains to determine the MIC95 values.

Assay [3] deals with Staphylococcus aureus subsp. aureus (MRSA) ATCC 43300. Briefly: Antimicrobial growth inhibition, S. aureus (MRSA). Type of assay: cell-based. The following applies: Staphylococcus aureus (MRSA) ATCC 43300, 100 μM. How it is done: as §1
For assay [4], the system named is NCI-60 human tumor cell lines. Briefly: NCI60 human tumor cell line screen. Type of assay: cell-based. To be noted: NCI60, FIG. 4. Here is the method:
Lead compounds 1, 2 and 19 were evaluated for anti-cancer activity at nM to uM concentrations in cellular screens.
The lead halogenated pyrrolopyrimidines and thienopyrimidines of the present invention were tested in the human cell line screen which is composed of 60 different human tumor cell lines (NCI-60) representing leukemia, melanoma, lung cancer, colon cancer, brain cancer, ovary cancer, breast cancer, prostate cancer and kidney cancer. Testing specifics can be found at the National Cancer Institute at http://dtp.nci.nih.gov/branches/btb/ivelsp.html. Compounds 1, 2 and 19 were testing initially at a single dose (10^−5M) in the full cell panel. The results of the one-dose are reported as a mean graph of the percent of the growth of the treated cells. Both growth inhibition (values between 0 and 100) and lethality (values less than 0) are detectable. To evaluate the test results, a value of 100 means no growth inhibition. A value of 40 would mean 60% growth inhibition. A value of zero means no net growth over the course of the experiment. A value of −40 means 40% lethality and a value of −100 means all the cells are dead.

In a further assay the test system is L1210 cells. Nature of the assay: Cell cycle distribution (propidium iodide, flow cytometry), L1210. Type of assay: cell-based, mouse. To be noted: IC50 concentrations, 24 h or 48 h. How it is done: 0.32 μM compound 1, b. 5.4 μM compound 2, and analyzed by flow cytometry of fixed, propidium iodide-stained cells. A minimum of 3000 cells were analyzed per cell population. Each bar represents the mean±SD across 4 independent cell samples.
Many antineoplastic compounds arrest cell proliferation by activating specific checkpoints that block progression through the cell cycle. To test whether compounds 1 or 2 inhibited cell proliferation by this mechanism, their effects on L1210 cell cycle distributions were monitored using propidium iodide staining and flow cytometry (FIG. 7). Cell cycle and apoptosis studies were conducted on L1210, a mouse lymphocytic leukemia cell line obtained from the American Type Culture Collection and grown in Dulbecco's Modified Eagle's Medium (DMEM) plus 10% fetal bovine serum (FBS). 2×10^6 cells were seeded in 100 mm dishes and treated with vehicle alone or compounds 1 or 2 at the IC50 values determined by cell viability assays or an equivalent volume of DMSO. At 24 and 48 h following treatment the cells were collected, fixed, and stained with propidium iodide (Sigma Aldrich) immediately before analysis by flow cytometry. Vehicle-treated cells were largely confined to G1 and S phases, with very small (<5%) subpopulations in the G2/M phase or showing sub-(<G1) or super-genomic (>G2) DNA content.
For orientation: Flow cytometry measures light scatter and fluorescence of single cells or particles in a stream.

Assay [5] has as its system murine leukemia L1210 cells. Nature of the assay: Cell proliferation assay, L1210. In kind it is cell-based. The following applies: Mus musculus. Here is the method: Cell proliferation assays for several of the compounds were performed on L1210, a mouse lymphocytic leukemia cell line; CCRF-CEM [39] an acute lymphoblastic leukemia cell line; and HeLa, a human cancer cell line derived from a human cervical adenocarcinoma. Murine Leukemia L1210, human lymphocytic CEM and human cervix carcinoma HeLa cells were obtained from the American Type Culture Collection (ATCC) (Rockville, Md.). All assays were performed in 96-well microtiter plates. To each well were added (5-7.5)×10^4 tumor cells and a given amount of the test compound. The cells were allowed to proliferate for 48 h (murine leukemia L1210 cells) or 72 h (human lymphocytic CEM and human cervix carcinoma HeLa cells) at 37° C. in a humidified CO2-controlled atmosphere. At the end of the incubation period, the cells were counted in a Coulter counter. The IC50 (50% inhibitory concentration) was defined as the concentration of the compound that inhibited cell proliferation by 50%. […] Presence of C7 iodine on the 2,4-dichloro pyrrolo[3,2-d] (compound 20) increases the anticancer activity by a factor of 5 when compared to compound 19. […] This alludes to a) importance of C7-I towards activity against cancer cell lines for the 2,4-O-benzylated analogues (15 and 16).

The test system of assay [6] is Candida albicans ATCC 10231. Briefly: Antifungal growth inhibition and MIC95, C. albicans. In kind it is cell-based. The following applies: ATCC10231; for inhibition at 100 µM: Candida albicans ATCC 10231, 100 μM; for MIC: Candida albicans, C. albicans ATCC 10231, minimum concentration for inhibition by 95%. How it is done: as §1, §2
The mark [7] stands for this setting: ATCC66031, Cryptococcus neoformans ATCC 66031, 100 μM.
The mark [8] stands for this setting: C. neoformans B4546, minimum concentration for inhibition by 95%.
Setting [9] is: C. neoformans JEC20, minimum concentration for inhibition by 95%.
Where [10] appears, read: C. neoformans VANC-R265, 100 μM.
Setting [11] is: FIG. 7 concentration, said in b126 to be the IC50 from cell viability assays, read-out: IC50 concentration used for L1210 cell cycle analysis.

As for `Clc1nc(Cl)c2sccc2n1` [Compound 1, 2,4-Dichlorothieno[3,2-d]pyrimidine], the inhibition at 100 µM in assay [1] is 43%; in assay [2] it was below 43%; with Cryptococcus neoformans (setting [7]), 101%; with Cryptococcus neoformans (C. neoformans B4546, 100 μM), 96%; in the assay on Cryptococcus neoformans (C. neoformans JEC20, 100 μM), 100%; in the assay on Cryptococcus neoformans (setting [10]), 93%. Besides, the results for the inhibition at 100 µM in assay [3] and in assay [6] were below 43% and 99%, respectively. Moreover, the values for the minimal inhibitory concentration (MIC) (with Cryptococcus neoformans (setting [8]); against Cryptococcus neoformans (setting [9]); in assay [6]) were 34.6 µM (≈ 7.1 µg/mL), 16.6 µM (≈ 3.4 µg/mL) and 23.4 µM (≈ 4.8 µg/mL), respectively. Further, the “activity against non-small cell lung and CNS cancers” value in assay [4] was “little or no activity”. In addition, the “anti-cancer activity against melanoma, breast, colon and renal cancers” value (“anti-cancer activity against melanoma” for short) in assay [4] was “selective activity”. Further, the “changes in L1210 cell cycle distribution” value in the assay with L1210 cells is reported as “no substantial changes”. Also, the IC50 in assay [5] (setting [11]) came out at 0.32 µM.
In the case of `Clc1nc(Cl)c2[nH]ccc2n1` [Compound 19, 2,4-Dichloropyrrolo[3,2-d]pyrimidine], the inhibition at 100 µM in assay [1] is below 43%; in the assay with Cryptococcus neoformans (setting [7]), below 43%; in the assay on Cryptococcus neoformans (C. neoformans B4546, 100 μM), below 43%; in the assay on Cryptococcus neoformans (C. neoformans JEC20, 100 μM), below 43%; in the assay on Cryptococcus neoformans (setting [10]), below 43%; in assay [3], below 43%. Besides, the inhibition at 100 µM in assay [6] was below 43%. Moreover, the “activity against non-small cell lung and CNS cancers” value in assay [4] is listed as “little or no activity”. In addition, the “anti-cancer activity against melanoma” value in assay [4] was “selective activity”. Besides, the IC50 in assay [5] (48 h proliferation, Coulter counter, read-out: IC50 L1210) worked out at 6.8 ± 2.8 µM.
As to `Clc1nc(Cl)c2scc(Br)c2n1` [Compound 2, 7-Bromo-2,4-dichlorothieno[3,2-d]pyrimidine], the inhibition at 100 µM was below 43% in assay [1]; below 43% in assay [2]; 55% with Cryptococcus neoformans (setting [7]); 82% in the assay on Cryptococcus neoformans (C. neoformans B4546, 100 μM); 91% in the assay with Cryptococcus neoformans (C. neoformans JEC20, 100 μM); 67% in the assay on Cryptococcus neoformans (setting [10]). For the same compound, the results for the inhibition at 100 µM in assay [3] and in assay [6] were below 43% and 99%, respectively. The MIC was 7 µM (≈ 1.99 µg/mL) in the assay on Cryptococcus neoformans (setting [8]), 5.8 µM (≈ 1.65 µg/mL) against Cryptococcus neoformans (setting [9]) and 10.7 µM (≈ 3.04 µg/mL) in assay [6]. Also, the “activity against non-small cell lung and CNS cancers” value in assay [4] is “little or no activity”. For the same compound, the “anti-cancer activity against melanoma” value in assay [4] is “selective activity”. The “changes in L1210 cell cycle distribution” value in the assay on L1210 cells was “no substantial changes”. Besides, the IC50 in assay [5] (setting [11]) is 5.4 µM.
